From ChEMBL document CHEMBL6109125, “A New Protractor Potentiates Glucagon-Like Peptide 1 with Slow-Release Depot and Long-Term Action” (J Med Chem, 2025) come the findings set out here.

pEC50: −log10 of the molar value.

What all share (format): functional, cell-based
Common to all, as to conditions: for pEC50: read-out: EC50

Experiment [1] deals with T1, Glucagon-like peptide 1 receptor (Homo sapiens, UniProt P43220). In words: Agonist activity at GLP-1R (unknown origin) expressed in HEK293 cells co-expressing CRE-Luc assessed as increase in intracellular cAMP accumulation in presence of 2% HSA by luciferase based assay. (Changes in cAMP serve as a functional read-out for many G protein-coupled receptors.)
T1 sequence (P43220 whole entry): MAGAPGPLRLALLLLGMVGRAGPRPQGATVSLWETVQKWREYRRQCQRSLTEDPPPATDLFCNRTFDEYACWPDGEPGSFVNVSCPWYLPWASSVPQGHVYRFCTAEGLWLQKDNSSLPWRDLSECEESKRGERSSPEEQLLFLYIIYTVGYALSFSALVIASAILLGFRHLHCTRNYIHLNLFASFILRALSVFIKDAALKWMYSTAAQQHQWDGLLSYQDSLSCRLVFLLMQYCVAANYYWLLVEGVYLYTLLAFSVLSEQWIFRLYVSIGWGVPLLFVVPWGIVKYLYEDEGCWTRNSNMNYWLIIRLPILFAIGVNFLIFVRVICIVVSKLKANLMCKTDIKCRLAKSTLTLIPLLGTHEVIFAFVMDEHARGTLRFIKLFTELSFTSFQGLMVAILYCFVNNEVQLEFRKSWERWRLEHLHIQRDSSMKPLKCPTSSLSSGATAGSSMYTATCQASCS
Experiment [2] has as its target T1, Glucagon-like peptide 1 receptor. In words: Agonist activity at GLP-1R (unknown origin) expressed in HEK293 cells co-expressing CRE-Luc assessed as increase in intracellular cAMP accumulation in presence of 10% FBS by luciferase based assay.
Experiment [3] shares this target. Briefly: Agonist activity at GLP-1R (unknown origin) expressed in HEK293 cells co-expressing CRE-Luc assessed as increase in intracellular cAMP accumulation by luciferase based assay.

For orientation: pEC50 means the EC50 on a negative log10 scale, so that one unit is a factor of ten. As for `CCOc1ccc(Nc2ccc(/C(=C3C=C/C(=[N+](\CC)Cc4ccc(S(=O)(=O)[O-])cc4)C=C/3C)c3ccc(N(CC)Cc4cccc(S(=O)(=O)NCCCCCC(=O)NCc5ccc(C(=O)NCCCC[C@H](NC(=O)[C@H](C)NC(=O)[C@H](C)NC(=O)[C@H](CCC(N)=O)NC(=O)CNC(=O)[C@H](CCC(=O)O)NC(=O)[C@H](CC(C)C)NC(=O)[C@H](Cc6ccc(O)cc6)NC(=O)[C@H](CO)NC(=O)[C@H](CO)NC(=O)[C@@H](NC(=O)[C@H](CC(=O)O)NC(=O)[C@H](CO)NC(=O)[C@@H](NC(=O)[C@H](Cc6ccccc6)NC(=O)[C@@H](NC(=O)CNC(=O)[C@H](CCC(=O)O)NC(=O)C(C)(C)NC(=O)[C@@H](N)Cc6c[nH]cn6)[C@@H](C)O)[C@@H](C)O)C(C)C)C(=O)N[C@@H](CCC(=O)O)C(=O)N[C@@H](Cc6ccccc6)C(=O)N[C@H](C(=O)N[C@@H](C)C(=O)N[C@@H](Cc6c[nH]c7ccccc67)C(=O)N[C@@H](CC(C)C)C(=O)N[C@H](C(=O)N[C@@H](CCCNC(=N)N)C(=O)NCC(=O)N[C@@H](CCCNC(=N)N)C(=O)NCC(=O)O)C(C)C)[C@@H](C)CC)cc5)c4)cc3C)cc2)cc1`, the pEC50 in experiment [1] is 11.49; in experiment [2], 11.38; in experiment [3], 11.97.
The like results for `CCOc1ccc(Nc2ccc(/C(=C3C=C/C(=[N+](\CC)Cc4cccc(S(=O)(=O)[O-])c4)C=C/3C)c3ccc(N(CC)Cc4cccc(S(=O)(=O)NCCCCCC(=O)N[C@@H](CS(=O)(=O)O)C(=O)N[C@@H](CS(=O)(=O)O)C(=O)NCCCC[C@H](NC(=O)[C@H](C)NC(=O)[C@H](C)NC(=O)[C@H](CCC(N)=O)NC(=O)CNC(=O)[C@H](CCC(=O)O)NC(=O)[C@H](CC(C)C)NC(=O)[C@H](Cc5ccc(O)cc5)NC(=O)[C@H](CO)NC(=O)[C@H](CO)NC(=O)[C@@H](NC(=O)[C@H](CC(=O)O)NC(=O)[C@H](CO)NC(=O)[C@@H](NC(=O)[C@H](Cc5ccccc5)NC(=O)[C@@H](NC(=O)CNC(=O)[C@H](CCC(=O)O)NC(=O)C(C)(C)NC(=O)[C@@H](N)Cc5c[nH]cn5)[C@@H](C)O)[C@@H](C)O)C(C)C)C(=O)N[C@@H](CCC(=O)O)C(=O)N[C@@H](Cc5ccccc5)C(=O)N[C@H](C(=O)N[C@@H](C)C(=O)N[C@@H](Cc5c[nH]c6ccccc56)C(=O)N[C@@H](CC(C)C)C(=O)N[C@H](C(=O)N[C@@H](CCCNC(=N)N)C(=O)NCC(=O)N[C@@H](CCCNC(=N)N)C(=O)NCC(=O)O)C(C)C)[C@@H](C)CC)c4)cc3C)cc2)cc1` were, in that order, 11.15, 11.16 and 11.78.
As for `CCOc1ccc(Nc2ccc(/C(=C3C=C/C(=[N+](\CC)Cc4cccc(S(=O)(=O)[O-])c4)C=C/3C)c3ccc(N(CC)Cc4cccc(S(=O)(=O)NCCCCCC(=O)NCCOCCOCC(=O)NCCOCCOCC(=O)NCCOCCOCC(=O)NCCCC[C@H](NC(=O)[C@H](C)NC(=O)[C@H](C)NC(=O)[C@H](CCC(N)=O)NC(=O)CNC(=O)[C@H](CCC(=O)O)NC(=O)[C@H](CC(C)C)NC(=O)[C@H](Cc5ccc(O)cc5)NC(=O)[C@H](CO)NC(=O)[C@H](CO)NC(=O)[C@@H](NC(=O)[C@H](CC(=O)O)NC(=O)[C@H](CO)NC(=O)[C@@H](NC(=O)[C@H](Cc5ccccc5)NC(=O)[C@@H](NC(=O)CNC(=O)[C@H](CCC(=O)O)NC(=O)C(C)(C)NC(=O)[C@@H](N)Cc5c[nH]cn5)[C@@H](C)O)[C@@H](C)O)C(C)C)C(=O)N[C@@H](CCC(=O)O)C(=O)N[C@@H](Cc5ccccc5)C(=O)N[C@H](C(=O)N[C@@H](C)C(=O)N[C@@H](Cc5c[nH]c6ccccc56)C(=O)N[C@@H](CC(C)C)C(=O)N[C@H](C(=O)N[C@@H](CCCNC(=N)N)C(=O)NCC(=O)N[C@@H](CCCNC(=N)N)C(=O)NCC(=O)O)C(C)C)[C@@H](C)CC)c4)cc3C)cc2)cc1`, the pEC50 in experiment [1] was 11.37; in experiment [2] it was 11.84; in experiment [3], 12.08.
Consider `CC[C@H](C)[C@H](NC(=O)[C@H](Cc1ccccc1)NC(=O)[C@H](CCC(=O)O)NC(=O)[C@H](CCCCN)NC(=O)[C@H](C)NC(=O)[C@H](C)NC(=O)[C@H](CCC(N)=O)NC(=O)CNC(=O)[C@H](CCC(=O)O)NC(=O)[C@H](CC(C)C)NC(=O)[C@H](Cc1ccc(O)cc1)NC(=O)[C@H](CO)NC(=O)[C@H](CO)NC(=O)[C@@H](NC(=O)[C@H](CC(=O)O)NC(=O)[C@H](CO)NC(=O)[C@@H](NC(=O)[C@H](Cc1ccccc1)NC(=O)[C@@H](NC(=O)CNC(=O)[C@@H](N)CCC(=O)O)[C@@H](C)O)[C@@H](C)O)C(C)C)C(=O)N[C@@H](C)C(=O)N[C@@H](Cc1c[nH]c2ccccc12)C(=O)N[C@@H](CC(C)C)C(=O)N[C@H](C(=O)N[C@@H](CCCNC(=N)N)C(=O)NCC(=O)N[C@@H](CCCNC(=N)N)C(=O)NCC(N)=O)C(C)C`, for which the EC50 entry in experiment [1] (hek293), in experiment [2] (hek293) and in experiment [3] (hek293) was “No_effect” in each case.
Consider `CCOc1ccc(Nc2ccc(/C(=C3C=C/C(=[N+](\CC)Cc4cccc(S(=O)(=O)[O-])c4)C=C/3C)c3ccc(N(CC)Cc4cccc(S(=O)(=O)NCCCCCC(=O)N[C@@H](CS(=O)(=O)O)C(=O)NCCOCCOCC(=O)NCCCC[C@H](NC(=O)[C@H](C)NC(=O)[C@H](C)NC(=O)[C@H](CCC(N)=O)NC(=O)CNC(=O)[C@H](CCC(=O)O)NC(=O)[C@H](CC(C)C)NC(=O)[C@H](Cc5ccc(O)cc5)NC(=O)[C@H](CO)NC(=O)[C@H](CO)NC(=O)[C@@H](NC(=O)[C@H](CC(=O)O)NC(=O)[C@H](CO)NC(=O)[C@@H](NC(=O)[C@H](Cc5ccccc5)NC(=O)[C@@H](NC(=O)CNC(=O)[C@H](CCC(=O)O)NC(=O)C(C)(C)NC(=O)[C@@H](N)Cc5c[nH]cn5)[C@@H](C)O)[C@@H](C)O)C(C)C)C(=O)N[C@@H](CCC(=O)O)C(=O)N[C@@H](Cc5ccccc5)C(=O)N[C@H](C(=O)N[C@@H](C)C(=O)N[C@@H](Cc5c[nH]c6ccccc56)C(=O)N[C@@H](CC(C)C)C(=O)N[C@H](C(=O)N[C@@H](CCCNC(=N)N)C(=O)NCC(=O)N[C@@H](CCCNC(=N)N)C(=O)NCC(=O)O)C(C)C)[C@@H](C)CC)c4)cc3C)cc2)cc1`, for which the negative logarithm of the EC50 (pEC50) in experiment [1] was 11.37; in experiment [2], 11.94; in experiment [3], 11.95.
Turning to `CCOc1ccc(Nc2ccc(/C(=C3C=C/C(=[N+](\CC)Cc4cccc(S(=O)(=O)[O-])c4)C=C/3C)c3ccc(N(CC)Cc4cccc(S(=O)(=O)NCCCCCC(=O)NCCOCCOCC(=O)NCCCC[C@H](NC(=O)[C@H](C)NC(=O)[C@H](C)NC(=O)[C@H](CCC(N)=O)NC(=O)CNC(=O)[C@H](CCC(=O)O)NC(=O)[C@H](CC(C)C)NC(=O)[C@H](Cc5ccc(O)cc5)NC(=O)[C@H](CO)NC(=O)[C@H](CO)NC(=O)[C@@H](NC(=O)[C@H](CC(=O)O)NC(=O)[C@H](CO)NC(=O)[C@@H](NC(=O)[C@H](Cc5ccccc5)NC(=O)[C@@H](NC(=O)CNC(=O)[C@H](CCC(=O)O)NC(=O)C(C)(C)NC(=O)[C@@H](N)Cc5c[nH]cn5)[C@@H](C)O)[C@@H](C)O)C(C)C)C(=O)N[C@@H](CCC(=O)O)C(=O)N[C@@H](Cc5ccccc5)C(=O)N[C@H](C(=O)N[C@@H](C)C(=O)N[C@@H](Cc5c[nH]c6ccccc56)C(=O)N[C@@H](CC(C)C)C(=O)N[C@H](C(=O)N[C@@H](CCCNC(=N)N)C(=O)NCC(=O)N[C@@H](CCCNC(=N)N)C(=O)NCC(=O)O)C(C)C)[C@@H](C)CC)c4)cc3C)cc2)cc1`, the negative-log EC50 (pEC50) in experiment [1] was 10.84; in experiment [3], 11.47.
Turning to `CCOc1ccc(Nc2ccc(/C(=C3C=C/C(=[N+](\CC)Cc4ccc(S(=O)(=O)[O-])cc4)C=C/3C)c3ccc(N(CC)Cc4cccc(S(=O)(=O)NCCCCCC(=O)NCCCC[C@H](NC(=O)[C@H](C)NC(=O)[C@H](C)NC(=O)[C@H](CCC(N)=O)NC(=O)CNC(=O)[C@H](CCC(=O)O)NC(=O)[C@H](CC(C)C)NC(=O)[C@H](Cc5ccc(O)cc5)NC(=O)[C@H](CO)NC(=O)[C@H](CO)NC(=O)[C@@H](NC(=O)[C@H](CC(=O)O)NC(=O)[C@H](CO)NC(=O)[C@@H](NC(=O)[C@H](Cc5ccccc5)NC(=O)[C@@H](NC(=O)CNC(=O)[C@H](CCC(=O)O)NC(=O)C(C)(C)NC(=O)[C@@H](N)Cc5c[nH]cn5)[C@@H](C)O)[C@@H](C)O)C(C)C)C(=O)N[C@@H](CCC(=O)O)C(=O)N[C@@H](Cc5ccccc5)C(=O)N[C@H](C(=O)N[C@@H](C)C(=O)N[C@@H](Cc5c[nH]c6ccccc56)C(=O)N[C@@H](CC(C)C)C(=O)N[C@H](C(=O)N[C@@H](CCCNC(=N)N)C(=O)NCC(=O)N[C@@H](CCCNC(=N)N)C(=O)NCC(=O)O)C(C)C)[C@@H](C)CC)c4)cc3C)cc2)cc1`, the negative logarithm of the EC50 (pEC50) in experiment [1] was 11.05.
As for `CCOc1ccc(Nc2ccc(/C(=C3C=C/C(=[N+](\CC)Cc4cccc(S(=O)(=O)[O-])c4)C=C/3C)c3ccc(N(CC)Cc4cccc(S(=O)(=O)NCCCCCC(=O)N[C@@H](CCC(=O)NCCOCCOCC(=O)NCCCC[C@H](NC(=O)[C@H](C)NC(=O)[C@H](C)NC(=O)[C@H](CCC(N)=O)NC(=O)CNC(=O)[C@H](CCC(=O)O)NC(=O)[C@H](CC(C)C)NC(=O)[C@H](Cc5ccc(O)cc5)NC(=O)[C@H](CO)NC(=O)[C@H](CO)NC(=O)[C@@H](NC(=O)[C@H](CC(=O)O)NC(=O)[C@H](CO)NC(=O)[C@@H](NC(=O)[C@H](Cc5ccccc5)NC(=O)[C@@H](NC(=O)CNC(=O)[C@H](CCC(=O)O)NC(=O)C(C)(C)NC(=O)[C@@H](N)Cc5c[nH]cn5)[C@@H](C)O)[C@@H](C)O)C(C)C)C(=O)N[C@@H](CCC(=O)O)C(=O)N[C@@H](Cc5ccccc5)C(=O)N[C@H](C(=O)N[C@@H](C)C(=O)N[C@@H](Cc5c[nH]c6ccccc56)C(=O)N[C@@H](CC(C)C)C(=O)N[C@H](C(=O)N[C@@H](CCCNC(=N)N)C(=O)NCC(=O)N[C@@H](CCCNC(=N)N)C(=O)NCC(=O)O)C(C)C)[C@@H](C)CC)C(=O)O)c4)cc3C)cc2)cc1`, the pEC50 in experiment [1] is 11.48; in experiment [3], 12.20.
